Structures are written as SMILES. The source made the active and inactive calls. The calls are words filed in the database; no cut-off is given here.

In the first assay the test system is HCT-116. Put plainly: Cytotoxicity against human HCT-116 cells assessed as reduction in cell viability measured after 48 hrs by MTS assay. In kind it is functional, cell-based.
Details: not given
(In general: Tetrazolium assays rely on reduction of a dye to a coloured formazan, in cell work by metabolically active cells.)
Turning to `C=C1CC[C@H]2[C@](C)(COC(=O)[C@@H](CC(=O)OC)[C@@H](OC[C@H]3C(=C)CC[C@H]4[C@](C)(CO)CCC[C@]34C)C(=O)OC)CCC[C@]2(C)[C@H]1CO[C@@H](C(=O)OC)[C@H](CC(=O)OC)C(=O)OC`, the result was inactive. In the case of `C=C1CC[C@H]2[C@@]3(C)CCC[C@]2(C)[C@H]1CO[C@@H](C(=O)OC)[C@H](CC(=O)O)C(=O)OC[C@]1(C)CCC[C@]2(C)[C@@H](CO[C@@H](C(=O)OC)[C@H](CC(=O)OC)C(=O)OC3)C(=C)CC[C@@H]12`, the outcome was inactive. `C=C1CC[C@H]2[C@](C)(COC(=O)[C@@H](CC(=O)O)[C@@H](OC[C@H]3C(=C)CC[C@H]4[C@](C)(CO)CCC[C@]34C)C(=O)OC)CCC[C@]2(C)[C@H]1CO[C@@H](C(=O)OC)[C@H](CC(=O)O)C(=O)OC(C)C`: the result was inactive.

For the compound `C=C1CC[C@H]2[C@@]3(C)CCC[C@]2(C)[C@H]1CO[C@@H](C(=O)OC)[C@H](CC(=O)O)C(=O)OC[C@]1(C)CCC[C@]2(C)[C@@H](CO[C@@H](C(=O)OC)[C@H](CC(=O)O)C(=O)OC3)C(=C)CC[C@@H]12`, the outcome was inactive. `C=C1CC[C@H]2C(C)(C)CCC[C@]2(C)[C@H]1CO[C@@H](C(=O)OC)[C@H](CC(=O)OC)C(=O)OC`: the result was inactive. In the case of `C=C1CC[C@H]2[C@](C)(COC(=O)[C@@H](CC(=O)O)[C@@H](OC[C@H]3C(=C)CC[C@H]4[C@](C)(CO)CCC[C@]34C)C(=O)OC)CCC[C@]2(C)[C@H]1CO[C@@H](C(=O)OC)[C@H](CC(=O)O)C(=O)OC`, the result was inactive. The same measure, in the same setting: the same measure for `C=C1CC[C@H]2[C@](C)(COC(=O)[C@@H](CC(=O)O)[C@@H](OC[C@H]3C(=C)CC[C@H]4[C@](C)(COC(=O)[C@@H](CC(=O)O)[C@@H](OC[C@H]5C(=C)CC[C@H]6[C@](C)(CO)CCC[C@]56C)C(=O)OC)CCC[C@]34C)C(=O)OC)CCC[C@]2(C)[C@H]1CO[C@@H](C(=O)OC)[C@H](CC(=O)OC)C(=O)O`: “inactive”.

Still in this assay, the particulars now being: HCT-116, 48 h.
In general, IC50 refers to the concentration needed to halve the response being measured. Turning to `C=C1CC[C@H]2[C@](C)(COC(=O)[C@@H](CC(=O)O)[C@@H](OC[C@H]3C(=C)CC[C@H]4[C@](C)(CO)CCC[C@]34C)C(=O)OC)CCC[C@]2(C)[C@H]1CO[C@@H](C(=O)OC)[C@H](CC(=O)OC)C(=O)OC`, the IC50 turned out to be 4.3 µM. Take `C=C1CC[C@H]2[C@](C)(COC(=O)[C@@H](CC(=O)OC)[C@@H](OC[C@H]3C(=C)CC[C@H]4[C@](C)(CO)CCC[C@]34C)C(=O)OC)CCC[C@]2(C)[C@H]1CO[C@@H](C(=O)OC)[C@H](CC(=O)O)C(=O)OC`: the IC50 was 3.6 µM.

The record behind these values is ChEMBL document CHEMBL4811226, “Species Prioritization Based on Spectral Dissimilarity: A Case Study of Polyporoid Fungal Species” (J Nat Prod, 2021).
